Reference: patent US20250250613A1, “DISCOVERY OF BACTERIAL AIEGEN THAT LIGHTS UP SPECIFIC G-QUADRUPLEXES” (Southern Marine Science and Engineering Guangdong …, priority 2024, published 2025)

How the values were obtained:
[1] = test system: c-myc G4; experiment: CD spectroscopy of c-myc G4 with HMPQ; type: binding
Experimental: (§1) CD spectra of G4s with HMPQ were recorded on a Chirascan CD spectrometer at room temperature from 220 nm to 320 nm under liquid mode. A 1 mm-path-length quartz cuvette was used with a 400 μL sample. Each G4 sample was prepared at the same concentration of 15 μM. The compound was mixed with G4s at a molar ratio of 1:10. Each test was scanned three times, and the background of the buffer was subtracted.

[2] = test system: immortalized mouse hippocampal neuronal cells HT22; experiment: Cytotoxicity assay (thiazolyl blue tetrazolium bromide), HT22; type: cell-based; settings: even at 100 μM, 24 h
Experimental: (§2) HEK293 and HeLa cells were purchased from ATCC, and HT22 cells were purchased from Sigma-Aldrich. They were cultured in Dulbecco's modified Eagle's medium (Thermo Fisher Scientific, 11965092) with 10% fetal bovine serum (Thermo Fisher Scientific, 26140079) and 1% penicillin-streptomycin at 37° C. in a humidified incubator with 5% CO2. After 1 day of cell culture, cells were seeded onto 96-well plates with a density of 5000 cells in each well and cultured for another 24 h. Then, HMPQ with different concentrations was added and treated for 24 h. After incubating with 20 μL of thiazolyl blue tetrazolium bromide (5 mg/mL in PBS buffer; Sigma-Aldrich) for 4 h, supernatants were removed, and 100 μL of DMSO was added to dissolve formazan. After shaking for 5 min in darkness, a Multiskan FC microplate was used to measure absorbance at 570 nm.

[3] = test system: regular double-stranded or single-stranded, or hairpin-structure nucleotides; experiment: Photoluminescence and NMR titration with non-G4 oligonucleotides; type: binding
Excerpt: Conventional fluorescent probes rely on hydrophobic aromatic rings and π-conjugated chromophores^22. However, their tendency to aggregate in hydrophobic pockets upon binding to nucleic acid strands in aqueous environments often results in the quenching of emitted light. Conversely, AIEgens excel in aqueous media, evading aggregation-caused quenching. […] In embodiments, binding to G4s restricts the mobility of HMPQ molecules, leading to a significant enhancement in fluorescence intensity. CD spectra confirm that HMPQ maintains the original conformation of G4s and its high biocompatibility enables visualization of G4s within the cellular nucleus.
To verify whether the compounds interacted with G4 DNA, we performed NMR titration experiments by running 1D ^1H NMR spectra at 25° C. All compounds were dissolved in isotope-labelled d6-DMSO (from Sigma-Aldrich) at about 50 mM concentration as stock solutions. To avoid chemical shifts of G4 samples resulting from d6-DMSO addition, 10 μL of d6-DMSO was added into 500 μL of 0.1 mM G4 solution in the NMR buffer (20 mM potassium phosphate buffer and 70 mM KCl, pH 7.0, 10% D2O). Then, a 1D ^1H-NMR spectrum was obtained as a reference. […]
In addition to fluorescence spectroscopy tests, we performed NMR titration as another prevalent method for assessing binding affinity. […]

[4] = test system: c-kit1 G4; experiment: CD spectroscopy of c-kit1 G4 with HMPQ; type: binding
Experimental: as §1

[5] = Absolute quantum yield of HMPQ in different states; type: physicochemical; settings: for Quantum Yield (%): excitation 320 nm
Experimental: Streptomyces chrestomyceticus BCC24770 was acquired from the Thailand Bioresource Research Centre. All oligonucleotides used were bought from Integrated DNA Technologies company (Singapore). NMR spectra were recorded on a 500 M or 800 M Varian spectrometer at 25° C. HRMS data were recorded on a Xevo G2-XS QTOF mass spectrometer from Water's. HPLC analysis or preparation was performed using a Waters HPLC system (Waters 2695 Separations Module; Milford, USA) and monitored under a Waters 2998 Photodiode Array Detector. Semi-preparative HPLC was performed using a Phenomenex Luna C18 column (250 mm×10 mm in size) and designed for a particle size of 5 μm. Single-crystal XRD data were collected on a Rigaku-Oxford Diffraction Supernova Dual Atlas diffractometer. Crystal photos were taken under Nikon ECLIPSE Ts2R fluorescence microscopes. CD spectra were collected using Chirascan Circular Dichroism (CD) Spectrometers. UV-vis absorption spectra were obtained under a Shimadzu UV-2600 spectrophotometer (medium scanning rate and quartz cuvettes of 2 cm path length). Photoluminescence spectra were recorded on an Edinburgh FS5 Spectrofluorometer. Absolute quantum yield was collected using an integrating sphere on a Hamamatsu Quantum Yield Spectrometer C11347 Quantaurus. All digital photographs were recorded on a Canon EOS 7D camera. A Leica SP8 confocal microscope was used for cell imaging.
After observing the strong emission of crystalline-state HMPQ, we studied its photophysical properties in a polymer matrix. HMPQ was dissolved and blended with the common polymer poly(methyl methacrylate) (PMMA)^39. A series of films was prepared by coating mixtures with varying weight percentages (wt %) of HMPQ onto a quartz substrate. The resulting films, containing different wt % of HMPQ, were analysed to measure their photoluminescence (PL) and quantum yield (QY) (FIGS. 3A-3D and 14, Table 2).

[6] = test system: G4s in HeLa cells; experiment: Confocal cell imaging, co-localization with G4-specific antibody BG4; type: cell-based, human
Experimental: HeLa cells were seeded onto a 12-well plate with coverslips at 37° C. and 5% CO2 for 1 day and incubated with HMPQ at 10 μM overnight. The next day, cells were fixed with 4% paraformaldehyde for 15 min at room temperature and then permeabilized with 0.2% Triton X-100 in PBS for another 10 min. G4-specific antibodies BG4 (Sigma-Aldrich, cat. no. MABE 1126) were added at 1:500 dilution for staining and incubated overnight at 4° C. Cells were washed three times with PBS and then incubated with secondary antibodies (Alexa 647 anti-rabbit for G4) at 1:1000 dilution for 1 h at room temperature. After washing the cells with PBS three times to remove excess secondary, the cells were incubated with DAPI for 5 min and washed with PBS once. The cells on slides were then air dried, mounted onto a Hydromount medium, and observed using a Leica SP8 confocal microscope.

[7] = test system: HEK293 cells; experiment: Cytotoxicity assay (thiazolyl blue tetrazolium bromide), HEK293; type: cell-based, human; settings: even at 100 μM, 24 h
Experimental: as §2

[8] = test system: c-kit2 G4; experiment: CD spectroscopy of c-kit2 G4 with HMPQ; type: binding
Experimental: as §1

[9] = test system: c-kit2 (SEQ ID NO: 3) DNA G4; experiment: Photoluminescence test of HMPQ with c-kit2 G4 (turn-on, Stern-Volmer plot, LOD); type: binding
Experimental: Single DNA nucleotides were purchased from Integrated DNA Technologies. The DNA sample at 100 μM (single strands) was then re-annealed by heating to 95° C. for 15 min, followed by slow cooling to room temperature overnight in an annealing buffer of 70 mM KCl and 20 mM potassium phosphate (pH 7.0). The final NMR samples contained 0.1 mM DNA or RNA in 20 mM potassium phosphate buffer (pH 7.0) and 70 mM KCl.
The intriguing conformational change observed in HMPQ led to exceptional emission performance, prompting us to explore its application as a fluorescent probe. The inherent two-planar aromatic rings of HMPQ offer the potential for interaction with the guanine tetrad or conjugation with side chains of novel nucleic acid secondary structures, G4s^45,46. To evaluate the binding affinity of HMPQ, a series of photoluminescence tests was conducted using various G4 samples introduced with HMPQ (Table 5).
To delve deeper into the sensitivity of HMPQ as a fluorescent G4 probe, the PL spectra of HMPQ (0.15 mM) were obtained with varying concentrations of c-kit2, as illustrated in FIG. 5B. […] According to the equation for limit of detection (LOD), LOD=3 SB/m (SB=the standard deviation of the repeated 10 blank measurements, and m=the slope of the relative intensity over […]), it was calculated as 28.7 nM^49,50. […]

[10] = test system: HeLa cells; experiment: Cytotoxicity assay (thiazolyl blue tetrazolium bromide), HeLa; type: cell-based, human; settings: even at 100 μM, 24 h
Experimental: as §2

QY ([5]; 30 wt % film (HMPQ in PMMA)): 30.5% | Quantum Yield (%) ([5]; Film, 1 wt. % HMPQ in PMMA): 25.5% | Quantum Yield (%) ([5]; Film, 5 wt. % HMPQ in PMMA): 27.9% | Quantum Yield (%) ([5]; Film, 10 wt. % HMPQ in PMMA): 29.4% | Quantum Yield (%) ([5]; Film, 20 wt. % HMPQ in PMMA): 30.5% | Quantum Yield (%) ([5]; Film, 40 wt. % HMPQ in PMMA): 30.0% | Quantum Yield (%) ([5]; Film, 60 wt. % HMPQ in PMMA): 27.1% | Quantum Yield (%) ([5]; Film, 100 wt. % HMPQ): 23.0% | Quantum Yield (%) ([5]; In DMSO Solution, 10^−5 M): 6.7% | Quantum Yield (%) ([5]; In THF Solution, 10^−5 M): 2.4% | Quantum Yield (%) ([5]; Solid Powder): 3.9%
SMILES: CCC(=O)c1ccc(OC)c(-c2nc3ccccc3c(=O)[nH]2)c1O [HMPQ, 2-(2-hydroxy-6-methoxy-3-propionylphenyl)quinazolin-4(3H)-one]
effect on original G4 conformation (CD spectrum) [1]: non-disruptive | cytotoxicity [2]: no cytotoxicity | interaction with non-G4 nucleotides [3]: no interaction | effect on original G4 conformation (CD spectrum) [4]: non-disruptive | penetration of the cell nucleus ([6]; BG4 as control): efficiently penetrated the cell nucleus | Overlap coefficient ([6]; FIG. 6C legend): 0.943 | overlap coefficient with BG4 ([6]; HMPQ 10 μM overnight): 94.3% | cytotoxicity [7]: no cytotoxicity | effect on original G4 conformation (CD spectrum) [8]: non-disruptive | fluorescence enhancement at 497 nm upon interaction with c-kit2 ([9]; 20 mM KH2PO4 buffer, 70 mM KCl, pH 7.0): around 300 fold | Stern-Volmer constant m ([9]; HMPQ 0.15 mM, c-kit2 0 μM to 50 μM): 1.94e+06 M⁻¹ | cytotoxicity [10]: no cytotoxicity
